How the values were obtained:
Format in all cases: cell-based
MIP1α mRNA = assay: RT-PCR of MIP1α mRNA in monocytes; details: human monocytes; for amplification of band ascribed to MIP1α mRNA, stimulant alone: LPS or TPA alone, 4 hours, RT-PCR
Procedure: (§1) Four-hundred milliliters of blood was collected from a human normal individual donor. The collected blood was diluted 2-folds with PBS(−), overlaid on Ficoll-paque (manufactured by Pharmacia), and centrifuged at 500×g for 20 minutes. The peripheral blood mononuclear cells (PBMCs) in the intermediate layer was collected with a pipette, and washed with RPMI 1640 medium (manufactured by Bio Whittaker). The collected PBMCs was suspended in a storage solution of 90% FCS (manufactured by JRH Biosciences)/10% dimethyl sulfoxide, and stored in liquid nitrogen. During the experiment, these stored PBMCs were rapidly melted in water bath at 37° C., and washed with RPMI 1640 medium containing 10 μg/ml Dnase (manufactured by Calbiochem). Thereafter, the number of living cells was calculated by trypan blue staining method, and subjected to each experiment.
(§2) PBMCs were suspended in RPMI 1640 medium containing 5% human serum of blood type-AB, 0.1 mM nonessential amino acid, 1 mM sodium pyruvate, 2 mM L-glutamine (hereinabove manufactured by Bio Whittaker), 10 mM HEPES (manufactured by nakalai tesque), and 1% streptomycin-penicillin (manufactured by Gibco BRL) (hereinafter simply referred to as “5HRPMI medium”) so as to have a concentration of 4×10^6 cells/ml. Thereafter, the suspension was spread on a 6-well cell culture plate (manufactured by Falcon) in a volume of 3 ml/well, and the cells were incubated in a wet-type incubator at 37° C. and 5% CO2 for 1.5 hours. After 1.5 hours, the non-adherent cells were removed by suction, and each well was washed with RPMI 1640 medium, and 2 ml of the 5HRPMI medium was added to the wells, to give monocytes.
To the monocytes obtained above was added in each well 8 μl of an aqueous DGE solution, or 8 μl of water as a control, and the cells were incubated in a wet-type incubator at 37° C. and 5% CO2 for 5 hours. Thereafter, with addition of 2 μl of a 1 μg/ml aqueous LPS solution or 2 μl of a 25 μM TPA dimethyl sulfoxide solution to each well, or with addition of neither of these substances thereto, the cells were cultured for additional 4 hours. Thereafter, RNA was prepared from each cell in accordance with the description of the kit using RNeasy Mini Kit (manufactured by QIAGEN, 74104). The group with addition of water alone or the aqueous DGE solution alone to the cells was set as a negative control, and the group with addition of water and the aqueous LPS solution or the aqueous TPA solution to the cells was set as a positive control. […]

interleukin-6 (IL-6) = assay: RT-PCR expression level of IL-6 gene in monocytes; details: human monocytes, 30 PCR cycles
Procedure: as §1, §2
(§3) To the monocytes obtained above was added in each well 8 μl of an aqueous DGE solution, or 8 μl of water as a control, and the cells were incubated in a wet-type incubator at 37° C. and 5% CO2 for 5 hours. Thereafter, with addition of 2 μl of a 1 μg/ml aqueous LPS solution or 2 μl of a 25 μM TPA dimethyl sulfoxide solution to each well, or with addition of neither of these substances thereto, the cells were cultured for additional 4 hours. Thereafter, RNA was prepared from each cell in accordance with the description of the kit using RNeasy Mini Kit (manufactured by QIAGEN, 74104). The group with addition of water alone or the aqueous DGE solution alone to the cells was set as a negative control, and the group with addition of water and the aqueous LPS solution or the aqueous TPA solution to the cells was set as a positive control.
(§4) A liquid mixture having a total volume of 60 μl of 0.5 μg of RNA prepared above, 10 mM Tris-HCl (pH 8.3), 50 mM KCl, 5 mM MgCl2, 1 mM dNTP mixtures, 150 pmol of Random 6 mers, 60 U Ribonuclease Inhibitor (manufactured by Takara Shuzo Co., Ltd., 2310A), and 15 U Reverse Transcriptase XL (AMV) (manufactured by Takara Shuzo Co., Ltd., 2620A) were incubated at 30° C. for 10 minutes and thereafter at 42° C. for 1 hour using a thermal cycler (GeneAmp PCR System 9600, manufactured by Applied Biosystems), and the mixture was heated at 99° C. for 5 minutes to deactivate the enzyme, to give cDNA.
(§5) Oligonucleotide primers for reaction of PCR were designed based on mRNA nucleotide sequence of each gene listed in the following tables, and synthesized in the same manner as above. In Tables 4 and 5, each gene evaluated in this Example, GenBank Accession NO, the name of oligonucleotide primers and SEQ ID NOs of the primers in Sequence Listing were listed. […]

interleukin-1β (IL-1β) = assay: RT-PCR expression level of IL-1β gene in monocytes; details: human monocytes, 30 PCR cycles
Procedure: as §1, §2, §3, §4, §5

[1] = tested on: tumor necrosis factor α (TNFα); assay: RT-PCR expression level of TNFα gene in monocytes; details: human monocytes, 30 PCR cycles
Procedure: as §1, §2, §3, §4, §5

[2] = tested on: macrophage-derived chemokine (MDC); assay: RT-PCR expression level of MDC gene in monocytes; details: human monocytes, 30 PCR cycles
Procedure: as §1, §2, §3, §4, §5

[3] = tested on: macrophage inflammatory protein-2-α (MIP2α); assay: RT-PCR expression level of MIP2α gene in monocytes; details: human monocytes, 35 PCR cycles
Procedure: as §1, §2, §3, §4, §5

[4] = tested on: SCO (cytochrome oxidase deficient, yeast) homolog-2 (SCO2); assay: RT-PCR expression level of SCO2 gene in monocytes; details: human monocytes, 30 PCR cycles
Procedure: as §1, §2, §3, §4, §5

transketolase (TK) = assay: RT-PCR expression level of TK gene in monocytes; details: human monocytes, 30 PCR cycles
Procedure: as §1, §2, §3, §4, §5

[5] = tested on: properdin P factor, complement (PFC); assay: RT-PCR expression level of PFC gene in monocytes; details: human monocytes, 35 PCR cycles
Procedure: as §1, §2, §3, §4, §5

[6] = tested on: regulator of G-protein signaling-2 (RGS2); assay: RT-PCR expression level of RGS2 gene in monocytes; details: human monocytes, 35 PCR cycles
Procedure: as §1, §2, §3, §4, §5

[7] = substance added alone, Con. (water) −
[8] = substance added alone, Con. (water) +
[9] = substance added alone, Con. (water) +/−
[10] = L + D: DGE and LPS, LPS alone +++
[11] = T + D: DGE and TPA, TPA alone +
[12] = L + D: DGE and LPS, LPS alone +
[13] = T + D: DGE and TPA, TPA alone −
[14] = L + D: DGE and LPS, LPS alone −

Row | Compound | amplification of band ascribed to MIP1α mRNA, stimulant alone (MIP1α mRNA) | expression level of IL-6 gene (interleukin-6 (IL-6); [7]) | expression level of IL-1β gene (interleukin-1β (IL-1β); [8]) | expression level of TNFα gene [1, 9] | expression level of MDC gene [2, 7] | expression level of MIP2α gene [3, 9] | expression level of SCO2 gene [4, 8] | expression level of TK gene (transketolase (TK); [9]) | expression level of PFC gene [5, 8] | expression level of RGS2 gene [6, 9] | also measured
1 | lipopolysaccharide [LPS, reference compound] | induction | +++ | +++ | ++ | + | + | − | +/− | − | − | 
2 | O=C1C=CC(CO)OC1O [DGE, L-glycero-1,5-epoxy-1αβ,6-dihydroxy-cis-hex-3-en-2-one] |  | − | + | − | − | +/− | + | +/− | + | +/− | induction of MIP1α mRNA by LPS, effect of DGE (MIP1α mRNA; DGE 5 hours, then LPS 4 hours, RT-PCR band): inhibited; induction of MIP1α mRNA by TPA, effect of DGE (MIP1α mRNA; DGE 5 hours, then TPA 4 hours, RT-PCR band): inhibited; expression level of IL-6 gene (interleukin-6 (IL-6); [10]): −; expression level of IL-6 gene (interleukin-6 (IL-6); [11]): −; expression level of IL-1β gene (interleukin-1β (IL-1β); [10]): +; expression level of IL-1β gene (interleukin-1β (IL-1β); T + D: DGE and TPA, TPA alone ++): +; expression level of TNFα gene ([1]; L + D: DGE and LPS, LPS alone ++): +/−; expression level of TNFα gene [1, 11]: +/−; expression level of MDC gene [2, 12]: −; expression level of MDC gene [2, 13]: −; expression level of MIP2α gene [3, 12]: +/−; expression level of MIP2α gene [3, 11]: +/−; expression level of SCO2 gene [4, 14]: +; expression level of SCO2 gene [4, 11]: +; expression level of TK gene (transketolase (TK); L + D: DGE and LPS, LPS alone +/−): +; expression level of TK gene (transketolase (TK); [13]): +; expression level of PFC gene [5, 14]: +; expression level of PFC gene [5, 11]: +; expression level of RGS2 gene [6, 14]: +/−; expression level of RGS2 gene ([6]; T + D: DGE and TPA, TPA alone +/−): +/−
3 | 12-o-tetradecanoylphorbol 13-acetate [TPA, reference compound] | induction | + | ++ | + | − | + | + | − | + | +/− | 

— patent publication US20030158250A1, “Agents correcting gene expression regulatory error” (priority 2000, published 2003)
